Laboratory results published in ChEMBL document CHEMBL1773045, “Conjugate (MTC-220) of muramyl dipeptide analogue and paclitaxel prevents both tumor growth and metastasis in mice” (J Med Chem, 2011).
Activity calls are given as the source filed them. The calls are words filed in the database; no cut-off is given here.

Experiments:
Mus musculus [1] = assay: Antimetastatic activity against mouse 4T1 cells xenografted in BALB/c mouse assessed as reduction of MMP9 mRNA expression in tumor at 5 mg/kg, ip qd for 23 days by RT-PCR analysis; format: functional, organism-based; set-up: dose 5 mg/kg
4T1 [2] = assay: Antitumor activity against mouse 4T1 cells xenografted in […] mouse assessed as tumor growth inhibition at 5 mg/kg, ip qd for 28 days relative to control; format: functional; conditions: 4T1, ip, 672 h, route intraperitoneal, read-out: GI
NCI-H460 = assay: Antitumor activity against human H460 cells xenografted in nu/nu BALB/c mouse assessed as tumor growth inhibition at 5 mg/kg, ip qd for 24 days measured on day 25 relative to control; format: functional; conditions: route intraperitoneal, read-out: GI
Mus musculus [3] = assay: Toxicity in human cancer cells xenografted in nu/nu BALB/c mouse assessed as body weight loss at 5 to 30 mg/kg, ip qd for 24 days; format: organism-based, Cancer cell lines; set-up: dose 5-30 mg/kg, route intraperitoneal; conditions: in vivo, 576 h
SK-OV-3 = assay: Growth inhibition of human SKOV3 cells after 48 hrs by sulforhodamine B assay; format: functional; conditions: SK-OV-3, 48 h
SF-268 = assay: Growth inhibition of human SF268 cells after 48 hrs by sulforhodamine B assay; format: functional; conditions: SF-268, 48 h
SNB-19 = assay: Growth inhibition of human SNB19 cells after 48 hrs by sulforhodamine B assay; format: functional; conditions: SNB-19, 48 h
MDA-MB-468 = assay: Growth inhibition of human MDA-MB-468 cells after 48 hrs by sulforhodamine B assay; format: functional; conditions: MDA-MB-468, 48 h
BT-549 = assay: Growth inhibition of human BT549 cells after 48 hrs by sulforhodamine B assay; format: functional; conditions: BT-549, 48 h
K562 = assay: Growth inhibition of human K562 cells after 48 hrs by sulforhodamine B assay; format: functional; conditions: K562, 48 h
MCF7 = assay: Antitumor activity against human MCF7 cells xenografted in nu/nu BALB/c mouse assessed as tumor growth inhibition at 30 mg/kg, ip qd for 12 days measured on day 36 relative to control; format: functional; conditions: route intraperitoneal, read-out: GI
MDA-MB-231 [4] = assay: Antitumor activity against human MDA-MB-231 cells xenografted in nu/nu BALB/c mouse assessed as tumor growth inhibition at 15 mg/kg, ip qd for 24 days measured on day 25 relative to control; format: functional; conditions: MDA-MB-231, ip, route intraperitoneal, read-out: GI
LOX IMVI = assay: Growth inhibition of human LOXIMVI cells after 48 hrs by sulforhodamine B assay; format: functional
KM12 = assay: Growth inhibition of human KM12 cells after 48 hrs by sulforhodamine B assay; format: functional; conditions: KM12, 48 h
MDA-MB-231 [5] = assay: Antitumor activity against human MDA-MB-231 cells xenografted in nu/nu BALB/c mouse assessed as tumor growth inhibition at 10 mg/kg, ip qd for 24 days measured on day 25 relative to control; format: functional; conditions: MDA-MB-231, ip, route intraperitoneal, read-out: GI
A498 = assay: Growth inhibition of human A498 cells after 48 hrs by sulforhodamine B assay; format: functional; conditions: A498, 48 h
HCT-116 = assay: Growth inhibition of human HCT116 cells after 48 hrs by sulforhodamine B assay; format: functional; conditions: HCT-116, 48 h
KETR3 = assay: Cytotoxicity against human Ketr3 cells after 72 hrs by MTT assay; format: functional, cell-based
DU-145 = assay: Growth inhibition of human DU145 cells after 48 hrs by sulforhodamine B assay; format: functional; conditions: DU-145, 48 h
HCC 2998 = assay: Growth inhibition of human HCC2998 cells after 48 hrs by sulforhodamine B assay; format: functional; conditions: HCC 2998, 48 h
A549 = assay: Antitumor activity against human A549 cells xenografted in nu/nu BALB/c mouse assessed as tumor growth inhibition at 30 mg/kg, ip qd for 12 days measured on day 25 relative to control; format: functional; conditions: route intraperitoneal, read-out: GI
A-431 = assay: Cytotoxicity against human A431 cells after 72 hrs by MTT assay; format: functional, cell-based
RXF 393 = assay: Growth inhibition of human RXF393 cells after 48 hrs by sulforhodamine B assay; format: functional; conditions: RXF 393, 48 h
BGC-823 = assay: Cytotoxicity against human BGC823 cells after 72 hrs by MTT assay; format: functional, cell-based
[6] = Growth inhibition of human […] cells after 48 hrs by sulforhodamine B assay; format: functional
KB = assay: Cytotoxicity against human KB cells after 72 hrs by MTT assay; format: functional, cell-based
SR = assay: Growth inhibition of human SR cells after 48 hrs by sulforhodamine B assay; format: functional
SK-MEL-5 = assay: Growth inhibition of human SK-MEL-5 cells after 48 hrs by sulforhodamine B assay; format: functional; conditions: SK-MEL-5, 48 h
OVCAR-5 = assay: Growth inhibition of human OVCAR5 cells after 48 hrs by sulforhodamine B assay; format: functional; conditions: OVCAR-5, 48 h
HOP-92 = assay: Growth inhibition of human HOP92 cells after 48 hrs by sulforhodamine B assay; format: functional; conditions: HOP-92, 48 h
4T1 [7] = assay: Antitumor activity against mouse 4T1 cells xenografted in […] mouse assessed as tumor growth inhibition at 10 mg/kg, ip qd for 28 days relative to control; format: functional; conditions: 4T1, ip, 672 h, route intraperitoneal, read-out: GI
[8] = test system: Lewis lung carcinoma cell line; assay: Antimetastatic activity against mouse LLC cells xenografted in C57BL/6 mouse assessed as inhibition of lung metastasis at 10 mg/kg, ip qd for 15 days relative to control; format: functional; conditions: 360 h, route intraperitoneal, read-out: GI
Mus musculus [9] = assay: Toxicity in mouse LLC cells xenografted C57BL/6 mouse assessed as decrease in body weight at 10 mg/kg, ip qd for 15 days; format: organism-based; set-up: dose 10 mg/kg, route intraperitoneal; conditions: in vivo, 360 h
MDA-MB-231 [10] = assay: Antitumor activity against human MDA-MB-231 cells xenografted in nu/nu BALB/c mouse assessed as tumor growth inhibition at 30 mg/kg, ip qd for 12 days measured on day 25 relative to control; format: functional; conditions: MDA-MB-231, ip, route intraperitoneal, read-out: GI
NCI-H226 = assay: Growth inhibition of human NCI-H226 cells after 48 hrs by sulforhodamine B assay; format: functional; conditions: NCI-H226, 48 h
HeLa = assay: Cytotoxicity against human HeLa cells after 72 hrs by MTT assay; format: functional, cell-based
A2780 = assay: Antitumor activity against human A2780 cells xenografted in nu/nu BALB/c mouse assessed as tumor growth inhibition at 30 mg/kg, ip qd for 12 days measured on day 25 relative to control; format: functional; conditions: route intraperitoneal, read-out: GI
SK-MEL-2 = assay: Growth inhibition of human SK-MEL-2 cells after 48 hrs by sulforhodamine B assay; format: functional; conditions: SK-MEL-2, 48 h
Mus musculus [11] = assay: Toxicity in ICR mouse assessed as mortality at 112.5 mg/kg, iv; format: organism-based; set-up: dose 112.5 mg/kg, route intravenous; conditions: in vivo
HCT-15 = assay: Growth inhibition of human HCT15 cells after 48 hrs by sulforhodamine B assay; format: functional; conditions: HCT-15, 48 h
NCI/ADR-RES = assay: Growth inhibition of human NCI/ADR-RES cells after 48 hrs by sulforhodamine B assay; format: functional
SW-620 = assay: Growth inhibition of human SW620 cells after 48 hrs by sulforhodamine B assay; format: functional; conditions: SW-620, 48 h
OVCAR-3 = assay: Growth inhibition of human OVCAR3 cells after 48 hrs by sulforhodamine B assay; format: functional; conditions: OVCAR-3, 48 h

CC(=O)O[C@H]1C(=O)[C@@]2(C)[C@H]([C@H](OC(=O)c3ccccc3)[C@]3(O)C[C@H](OC(=O)[C@H](OC(=O)CCC(=O)NCCCC[C@H](NC(=O)CC[C@H](NC(=O)[C@H](C)NC(=O)/C=C/c4ccc(Cl)cc4)C(N)=O)C(N)=O)[C@H](NC(=O)c4ccccc4)c4ccccc4)C(C)=C1C3(C)C)[C@]1(OC(C)=O)CO[C@@H]1C[C@@H]2O
Activity (Mus musculus [1]): Active
inhibition in vivo at 5 mg/kg (4T1 [2]): 33.5%
inhibition in vivo at 5 mg/kg (NCI-H460): 2.15%
Activity (Mus musculus [3]): Non-toxic
GI50 (SK-OV-3): < 10 nM
GI50 (SF-268): < 10 nM
GI50 (SNB-19): < 10 nM
GI50 (MDA-MB-468): < 10 nM
GI50 (BT-549): < 10 nM
GI50 (K562): < 10 nM
inhibition in vivo at 30 mg/kg (MCF7): 100%
inhibition in vivo at 15 mg/kg (MDA-MB-231 [4]): 57.4%
GI50 (LOX IMVI): < 10 nM
GI50 (KM12): < 10 nM
inhibition in vivo at 10 mg/kg (MDA-MB-231 [5]): 37.3%
GI50 (A498): < 10 nM
GI50 (HCT-116): < 10 nM
Activity (KETR3): Active
GI50 (DU-145): < 10 nM
GI50 (HCC 2998): < 10 nM
inhibition in vivo at 30 mg/kg (A549): 79.9%
Activity (A-431): Active
GI50 (RXF 393): < 10 nM
Activity (BGC-823): Active
GI50 [6]: < 10 nM
Activity (KB): Active
GI50 (SR): < 10 nM
GI50 (SK-MEL-5): < 10 nM
GI50 (OVCAR-5): < 10 nM
GI50 (HOP-92): < 10 nM
inhibition in vivo at 10 mg/kg (4T1 [7]): 45.9%
inhibition in vivo at 10 mg/kg [8]: 47.4%
Activity (Mus musculus [9]): Non-toxic
inhibition in vivo at 30 mg/kg (MDA-MB-231 [10]): 87%
GI50 (NCI-H226): < 10 nM
Activity (HeLa): Active
inhibition in vivo at 30 mg/kg (A2780): 45.2%
GI50 (SK-MEL-2): < 10 nM
Activity (Mus musculus [11]): Non-toxic
GI50 (HCT-15): < 10 nM
GI50 (NCI/ADR-RES): < 10 nM
GI50 (SW-620): < 10 nM
GI50 (OVCAR-3): < 10 nM
